Source: patent US9045484B2, “Inhibitors of the BMP signaling pathway” (The Brigham and Women's Hospital, Inc., priority 2008, dated 2015)

Tests used:
[1] = test system: IL6-induced hepcidin expression in HepG2 cells; test: IL6-induced hepcidin expression in HepG2 hepatoma cells; type: cell-based, human; details: pretreatment 5-625 nM for 30 min, IL6 50 ng/mL 1.5 h; FIG. 7
Protocol: HepG2 cells pretreated with compound 13 (5-625 nM) or vehicle for 30 min. were incubated with IL6 (50 ng/mL) for 1.5 h. Cells were harvested, and hepcidin mRNA and 18S rRNA levels were measured by quantitative RT-PCR. Changes in gene expression were normalized to 18S ribosomal RNA levels using the relative cycle threshold method.

[2] = test system: turpentine-challenged C57BL/6 mice; details: 3 mg/kg ip every 12 h, weekly turpentine for 3 weeks
Protocol: To model the anemia of inflammation, C57BL/6 mice were studied in which chronic inflammation was induced by weekly subcutaneous injections of turpentine.
Mice received a subcutaneous injection of 100 μL turpentine weekly for 3 weeks. Compound 13 or vehicle (3 mg/kg) was administered ip beginning with the first turpentine injection and every 12 h thereafter. Vehicle treated mice without turpentine injection were studied as controls. One week after the final turpentine dose, blood was drawn for Hb levels, mean corpuscular volume (MCV), and absolute neutrophil counts.

[3] = Microsomal stability in pooled mouse liver microsomes; type: in vitro ADME; details: 0.5 mg/mL microsome protein, 1 mM NADPH
Protocol: Test compound (3 μM final concentration) along with 0.5 mg/mL microsome protein and 1 mM NADPH was incubated for 0, 5, 15, 30 and 60 min. Incubation of test compound and microsomes in the absence of NADPH served as a negative control. The samples were quenched with methanol and centrifuged for 20 min at 2500 rpm to precipitate proteins. Sample supernatants were analyzed (N=3) by LC/MS. The ln peak area ratio (compound peak area/internal standard peak area) was plotted against time and the slope of the line determined to give the elimination rate constant [k=(−1)(slope)]. The half life (t1/2 in minutes) and the in vitro intrinsic clearance (CLint in μL/min/mg protein) values were calculated according to the following equations, where V=incubation volume in μL/mg protein: […]

hepcidin = test: Hepcidin expression in IL-6-expressing transgenic zebrafish; type: in vivo; details: 6 uM by bathing overnight; 7 days postfertilization; FIG. 22
Protocol: IL-6 expression was driven in the cardiomyocytes of living zebrafish by mating transgenic zebrafish expressing the Gal4 protein under the control of the cardiac myosin light chain 2 (cmlc) promoter with transgenic zebrafish carrying the human IL-6 gene under the control of a UAS upstream activation sequence (IL-6). Animals carrying both transgenes expressed IL-6 in their cardiomyocytes. IL-6-expressing animals were treated with 6 uM compound 13 or DMSO control by bathing overnight (FIG. 22). At 7 days postfertilization, animals were lysed, total RNA was extracted, and hepcidin expression levels were determined by quantitative RT-PCR with normalization to the housekeeping gene RPL13.

[4] = test system: BMP-induced phosphorylation of SMAD1/5/8; test: BMP4-induced phosphorylation of SMAD1/5/8, cytoblot (cellular ELISA); type: cell-based, murine; details: Mus musculus; FIG. 1; approximate; read-out: functional IC50, BMP4-induced SMAD1/5/8 phosphorylation
Protocol: Murine pulmonary artery smooth muscle cells were isolated, explanted and cultured as previously described (see […] et al. Am. J. Physiol. Lung Cell Mol. Physiol. 280:[…], 2001) and then grown to confluence in 96 well tissue culture plates. Cells were incubated in serum-free medium for 18 h, and then incubated with recombinant BMP2, BMP4, BMP6, BMP9, GDF5, TGF-β, or Activin A ligands (R&D Systems, Minneapolis, Minn.) at varying concentrations in duplicate for 20 minutes. […] Specificity for BMP-mediated signaling was determined separately using a modification of the cellular ELISA technique assaying for the activation of SMAD2 or SMAD3 via TGF-β, or Activin A. A corresponding IC50 was calculated for the effects of these compounds upon those signaling pathways.

LDL-R-deficient mice = test: Vascular calcification in high-fat diet fed LDL-R-deficient mice, Osteosense probe imaging of aortas; type: in vivo; details: 16 weeks high fat diet; compound 13 mg/kg IP twice daily; FIG. 24
Protocol: Adult (10 week old) LDL-R-deficient mice on a C57BL/6 background were subjected to a high-lipid atherogenic diet, concurrently with vehicle treatment or drug treatment (compound 13 mg/kg IP twice daily) started simultaneously with atherogenic diet. After 16 weeks of high fat diet and drug treatment, aortas, carotids, and left ventricular outflow tract were harvested and prepared as appropriate for histochemical staining or immunohistological staining, by en face mounting and fixation, or for paraffin embedded tissue sections for histology. To analyze early osteogenesis (as a precursor to calcification), mice were injected intravenously with Osteosense probe (VisEn) 24 hours prior to harvest, and harvested aortas were rinsed with phosphate buffered saline. Visualization of Osteosense probe was accomplished by near-IR fluorescence ([…]) using a LICOR laser scanner. This technique readily detected signal in aortas obtained from high-fat diet LDL-R-deficient mice treated with vehicle control (e, f, and g), while relatively little background signal was obtained in wild-type mice given a normal diet (a, b). Non-fluorescent imaging of wild-type aortas is also depicted (c, d).

[5] = test system: turpentine-challenged C57BL/6 mice; test: Turpentine-induced hypoferrinemia, 24 h after one turpentine injection; type: in vivo
Protocol: Mice received a subcutaneous injection of turpentine, and 24 h later, serum was obtained for measurement of iron concentrations. Compound 13 (3 mg/kg) or vehicle was administered ip concurrently with turpentine and 12 hours later.

## c1ccc2c(-c3cnn4cc(-c5ccc(N6CCNCC6)cc5)cnc34)ccnc2c1 [Compound 13, 4-[6-(4-piperazin-1-ylphenyl)pyrazolo[1,5-a]pyrimidin-3-yl]quinoline]
[1]
  IL6-mediated increase in hepcidin mRNA levels: abrogated the IL6-mediated increase in hepcidin mRNA levels in a dose-dependent fashion
[2]; FIG. 10
  hemoglobin (Hb) levels: prevented the decline in Hb levels and MCV
[2]; FIG. 11
  mean corpuscular volume (MCV): prevented the decline in Hb levels and MCV
[2]; FIG. 12
  absolute neutrophil counts: did not affect the increase in absolute neutrophil counts
[3]; read-out: half-life (t1/2) in mouse liver microsomes
  half-life at 3 μM: 1.37 h
[3]; read-out: intrinsic clearance (CLint) in mouse liver microsomes
  microsomal CLint at 3 μM: 16.9 ± 5.6 µL/min/mg
hepcidin
  hepcidin expression in IL-6-expressing animals: reduced hepcidin expression to wild-type levels
[4]
  IC50: 5 to 10 nM
LDL-R-deficient mice
  Osteosense near-IR fluorescence of aortas: less intense than that of vehicle-treated controls
[5]; 3 mg/kg ip with turpentine and 12 hours later, FIG. 8
  turpentine-induced reduction in serum iron levels: prevented turpentine-induced reduction in serum iron levels
[5]; two doses 3 mg/kg IP every 12 hours, FIG. 9
  hepatic hepcidin mRNA levels after turpentine: prevented elevation of hepatic hepcidin mRNA levels
